Results published in patent US9034863B2, “Compositions and methods for inhibiting entry of a hepatic virus” (The Board of Trustees of the University of Illinois, priority 2008, dated 2015).

Legend:
HCVcc JFH-1 [1] = assay: HCV binding versus internalization, cell-associated HCV RNA (FIG. 1); type: cell-based, Hepatitis C virus (HCV)
Method: Monolayers of human hepatoma cell line Huh7 were inoculated with HCVcc JFH-1 (cell culture produced HCV JFH-1, which is a specific HCV clone isolated from a Japanese Fulminant Hepatitis patient) at an MOI of 0.1 FFU/cell for 6 hours in the presence or absence of increasing concentrations of ezetimibe. Cultures were washed extensively and cell associated RNA was collected 6 and 30 hours post-infection (p.i.) to determine the amount of bound and internalized virus, respectively. […] Results are graphed as means±s.e.m. for triplicate samples. The data presented are representative of three independent experiments. Assay background (i.e., HCV RNA level detected in uninfected samples) is equal to ˜0.5−1.0×10^2 copies/μg total cellular RNA. Significant reduction in HCV RNA levels relative to mock-treated cultures is denoted by a single asterisk (p<0.05, one-way ANOVA and Tukey's post hoc t test).
To decipher whether ezetimibe inhibits HCV cellular binding or subsequent internalization, cell-associated HCV RNA and protein in mock- and ezetimibe-treated HCVcc-infected cultures was examined.

HCVcc JFH-1 [2] = assay: Chronic HCVcc infection in growing Huh7 cells, long-term treatment, RT-qPCR (FIG. 2); type: cell-based, Hepatitis C virus (HCV); details: alone, throughout ~70 days of treatment
Method: Cultures of growing Huh7 cells were inoculated with HCVcc JFH-1 at an MOT of 0.01 FFU/cell. Infected cultures were maintained for an additional 10 days to allow HCV RNA to reach steady-state levels. FIG. 2A, Cultures were mock treated, treated with ezetimibe alone (30 μM), IFN-α (100 U/ml) alone, or ezetimibe (30 μM) plus IFN-α (100 U/ml) in combination. Treatments were maintained as cultures were passaged. FIG. 2B, After 70 days IFN-α or combination ezetimibe plus IFN-α treatment, treatment was either continued (open shapes) or discontinued (filled shapes). […] Results are graphed as means±s.e.m. for triplicate samples. The data presented are representative of two independent experiments.
For experiments in growing cells, Huh7 cells seeded at 1×10^6 cells in a T75 cell culture flask (Corning) were infected with JFH-1 HCVcc at a MOI of 0.01 FFU/cell and subsequently cultured for 10 days to allow HCV RNA to reach steady-state levels. On day 10 post-infection, cells were split 1:4 and re-plated into T25 culture flasks (Corning). Twenty four hours post seeding, individual flasks were mock-treated with cDMEM or treated with cDMEM containing IFN-α (100 U/ml), ezetimibe (30 μM) or a combination of both IFN-α (100 U/ml) and ezetimibe (30 μM). Throughout the course of the experiment, fresh media with treatments was replenished every two days and cells were trypsinized just before reaching confluence and re-plated at a dilution of 1:3 to maintain active cell growth. […]
Total cellular RNA was purified using an ABI PRISM™ 6100 Nucleic Acid PrepStation (Applied Biosystems), as per the manufacturer's instructions. […] HCV JFH-1 and human GAPDH RNA transcript levels were determined relative to a standard curve derived from serial dilutions of plasmid containing the JFH-1 HCV cDNA or the human GAPDH coding sequence, respectively. […]
To confirm HCV clearance, drug treatments were subsequently discontinued on day 70 and HCV RNA levels were monitored for an additional 30 days.

Huh7 cells = assay: Cytotoxicity assay (adenylate kinase release, TOXILIGHT); type: cell-based, human
Text: The […] Plus Cell Proliferation assay kit (Lonza, Walkersville, Md.), which incorporates bioluminescent detection of cellular ATP as a measure of cell viability and proliferation, was used according to the manufacturer's instructions. Briefly, mock-treated and drug-treated cultures were lysed in Cell Lysis reagent for […]. One hundred μl of culture medium was transferred to white 96-well plates (BD Biosciences) containing ATP detection reagent and luminescence, expressed as relative light units (RLU), was measured (Fluostar OPTIMA). To assess drug-induced cellular toxicity, a bioluminescence-based assay (The TOXILIGHT BioAssay Kit, Lonza) that measures adenylate kinase (AK) released from damaged cells was used as per the manufacturer's instructions. […] One hundred μl of AK detection reagent was then added to each well, and luminescence (RLU) was measured (Fluostar OPTIMA).
To ensure that the inhibition observed was not due to ezetimibe-induced changes in cell proliferation or cytotoxicity, cellular ATP was measured as a read-out of Huh7 cell viability and proliferation and cellular toxicity by adenylate kinase release following treatment with increasing doses of ezetimibe. […] Furthermore, to test the specificity of the observed HCV inhibition, the effect of ezetimibe on entry of another flavivirus, Dengue virus (DNV), was assessed.

O=C1[C@H](CC[C@H](O)c2ccc(F)cc2)[C@@H](c2ccc(O)cc2)N1c1ccc(F)cc1 [ezetimibe, 1-(4-fluorophenyl)-(3R)-[3-(4-fluorophenyl)-(3S)-hydroxypropyl]-(45)-(4-hydroxyphenyl)-2-azetidinone]
virion binding (cell-associated HCV RNA) (HCVcc JFH-1 [1]; 6 hours p.i.): not binding | HCV entry/internalization (HCV RNA expansion, de novo NS5A expression) (HCVcc JFH-1 [1]; later time points (30 hours p.i.)): inhibits HCV internalization | intracellular HCV steady-state RNA levels (HCVcc JFH-1 [2]): did not reduce | cellular toxicity (adenylate kinase release) (Huh7 cells; increasing doses): did not inhibit cell proliferation or induce cellular toxicity | cytotoxicity (Huh7 cells; treatment of Huh7 cells for 12 hours, concentrations tested): not cytotoxic
